Experimental data: patent publication US9187437B2, “Substituted oxadiazole compounds” (BRISTOL-MYERS SQUIBB COMPANY, priority 2010, dated 2015)

Tests used:
[1] = biological target: T1, S1P1 (Homo sapiens (Human), UniProt P21453); assay: Receptor [35S] GTPγS Binding Assay, S1P1/CHO cell membranes; type: biochemical; conditions: membranes from S1P1/CHO cells; rounded to two significant digits
Protocol: (§1) Receptor [35S] GTPγS Binding Assays
(§2) Compounds were loaded in a 384 Falcon v-bottom plate (0.5 μl/well in a 11 point, 3-fold dilution). Membranes prepared from S1P1/CHO cells or EDG3-Ga15-bla HEK293T cells were added to the compound plate (40 μl/well, final protein 3 μg/well) with MULTIDROP®. [^35S]GTP (1250 Ci/mmol, Perkin Elmer) was diluted in assay buffer: 20 mM HEPES, pH7.5, 10 mM MgCl2, 150 mM NaCl, 1 mM EGTA, 1 mM DTT, 10 μM GDP, 0.1% fatty acid free BSA, and 10 μg/ml Saponin to 0.4 nM. 40 μl of the [^35S] GTP solution was added to the compound plate with a final concentration of 0.2 nM. The reaction was kept at room temperature for 45 min. At the end of incubation, all the mixtures in the compound plate were transferred to Millipore 384-well FB filter plates via the VELOCITY11® Vprep liquid handler. The filter plate was washed with water 4 times by using the manifold Embla plate washer and dried at 60° C. for 45 min. MicroScint 20 scintillation fluid (30 μl) was added to each well for counting on the Packard TOPCOUNT®. EC50 is defined as the agonist concentration that corresponds to 50% of the Ymax (maximal response) obtained for each individual compound tested. The results in Table B were rounded to two significant digits.

[2] = biological target: T1, S1P1; assay: S1P1 Binding Assay (33P-S1P radioligand competition, membranes from CHO cells); conditions: membranes from CHO cells expressing human S1P1; 0.03 nM 33P-S1P; rounded to two significant digits
Protocol: Membranes were prepared from CHO cells expressing human S1P1. Cells pellets (1×10^8 cells/pellet) were suspended in buffer containing 20 mM HEPES, pH 7.5, 50 mM NaCl, 2 mM EDTA and Protease Inhibitor cocktail (Roche), and disrupted on ice using the Polytron homogenizer. The homogenate was centrifuged at 20,000 rpm (48,000 g) and the supernatant was discarded. The membrane pellets were resuspended in buffer containing 50 mM HEPES, pH 7.5, 100 mM NaCl, 1 mM MgCl2, 2 mM EDTA and stored in aliquots at −80° C. after protein concentration determination.
The IC50 is defined as the concentration of competing ligand needed to reduce specific binding by 50%.

[3] = biological target: S1P3 (Homo sapiens (Human), UniProt Q99500); assay: Receptor [35S] GTPγS Binding Assay, EDG3-Ga15-bla HEK293T cell membranes; type: biochemical; conditions: membranes from EDG3-Ga15-bla HEK293T cells; rounded to two significant digits
Protocol: as §1, §2

T1 sequence (P21453 whole entry): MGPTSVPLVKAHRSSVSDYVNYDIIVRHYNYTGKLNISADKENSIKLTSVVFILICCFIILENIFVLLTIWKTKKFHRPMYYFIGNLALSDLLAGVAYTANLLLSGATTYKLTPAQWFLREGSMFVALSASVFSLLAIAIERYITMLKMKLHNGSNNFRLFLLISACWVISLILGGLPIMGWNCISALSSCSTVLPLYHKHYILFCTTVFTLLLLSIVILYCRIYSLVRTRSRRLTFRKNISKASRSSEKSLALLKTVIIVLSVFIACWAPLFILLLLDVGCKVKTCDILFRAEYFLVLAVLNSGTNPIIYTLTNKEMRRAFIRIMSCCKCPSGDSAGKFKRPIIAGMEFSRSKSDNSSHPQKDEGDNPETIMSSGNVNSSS
Chain of S1P3 (Q99500 whole entry): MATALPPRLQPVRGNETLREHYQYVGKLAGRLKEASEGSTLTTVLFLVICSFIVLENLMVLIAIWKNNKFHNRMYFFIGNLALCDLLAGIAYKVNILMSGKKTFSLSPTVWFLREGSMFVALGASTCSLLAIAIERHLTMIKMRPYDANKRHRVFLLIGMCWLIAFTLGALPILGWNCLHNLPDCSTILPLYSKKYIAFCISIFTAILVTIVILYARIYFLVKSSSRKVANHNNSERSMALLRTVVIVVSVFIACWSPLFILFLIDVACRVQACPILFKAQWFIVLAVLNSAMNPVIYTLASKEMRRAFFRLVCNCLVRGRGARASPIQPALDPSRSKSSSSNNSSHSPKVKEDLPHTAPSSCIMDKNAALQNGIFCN

EC50 [1]	IC50 [2]	EC50 [3]	Compound
710 nM	33 nM	> 62000 nM	FC(F)(F)c1cccc(-c2noc(CCC3(c4ccccc4)CCCCC3)n2)c1 [Example 8, 5-(2-(1-phenylcyclohexyl)ethyl)-3-(3-(trifluoromethyl)phenyl)-1,2,4-oxadiazole]
	410 nM		Fc1ccccc1COc1ccc(-c2noc(CCC3(c4ccccc4)CCCCC3)n2)cc1 [Example 20, 3-(4-((2-fluorobenzyl)oxy)phenyl)-5-(2-(1-phenylcyclohexyl)ethyl)-1,2,4-oxadiazole]
	67 nM		[O-][n+]1ccc(-c2noc(CCC3(c4ccccc4)CCCCC3)n2)cc1 [Example 34, 4-(5-(2-(1-phenylcyclohexyl)ethyl)-1,2,4-oxadiazol-3-yl)pyridine 1-oxide]
	1300 nM		Cc1ccc(-c2noc(CCC3(c4cc(F)cc(F)c4)CCCCC3)n2)c(=O)[nH]1 [Example 1, 3-(5-(2-(1-(3,5-Difluorophenyl)cyclohexyl)ethyl)-1,2,4-oxadiazol-3-yl)-6-methyl-2(1H)-pyridinone]
330 nM		5900 nM	Fc1ccc(-c2noc(CCC3(c4ccccc4)CCCCC3)n2)cc1F [Example 12, 3-(3,4-difluorophenyl)-5-(2-(1-phenylcyclohexyl)ethyl)-1,2,4-oxadiazole]
2200 nM		1700 nM	COc1cc(OC)cc(-c2noc(CCC3(c4ccccc4)CCCCC3)n2)c1 [Example 19, 3-(3,5-dimethoxyphenyl)-5-(2-(1-phenylcyclohexyl)ethyl)-1,2,4-oxadiazole]
3200 nM		1300 nM	Clc1ncn(Cc2cccc(-c3noc(CCC4(c5ccccc5)CCCCC4)n3)c2)c1Cl [Example 24, 3-(3-((4,5-dichloro-1H-imidazol-1-yl)methyl)phenyl)-5-(2-(1-phenylcyclohexyl)ethyl)-1,2,4-oxadiazole]
	13 nM		O=c1cc(-c2noc(CCC3(c4cc(F)cc(F)c4)CCCCC3)n2)cc[nH]1 [Example 2, 4-(5-(2-(1-(3,5-Difluorophenyl)cyclohexyl)ethyl)-1,2,4-oxadiazol-3-yl)-2(1H)-pyridinone]
67 nM	1.9 nM	550 nM	Nc1ncccc1-c1noc(CCC2(c3ccccc3)CCCCC2)n1 [Example 33, 3-(5-(2-(1-phenylcyclohexyl)ethyl)-1,2,4-oxadiazol-3-yl)-2-pyridinamine]
50 nM	0.54 nM	430 nM	Clc1cc(-c2noc(CCC3(c4ccccc4)CCCCC3)n2)ccn1 [Example 32, 2-chloro-4-(5-(2-(1-phenylcyclohexyl)ethyl)-1,2,4-oxadiazol-3-yl)pyridine]
	12 nM		Fc1ccc(-c2noc(CCC3(c4ccccc4)CCCCC3)n2)cc1 [Example 5, 3-(4-fluorophenyl)-5-(2-(1-phenylcyclohexyl)ethyl)-1,2,4-oxadiazole]
530 nM		2200 nM	Cc1cccc(-c2noc(CCC3(c4ccccc4)CCCCC3)n2)c1 [Example 9, 3-(3-methylphenyl)-5-(2-(1-phenylcyclohexyl)ethyl)-1,2,4-oxadiazole]
	210 nM		Fc1cc(-c2noc(CCC3(c4ccccc4)CCCCC3)n2)ccc1C(F)(F)F [Example 13, 3-(3-fluoro-4-(trifluoromethyl)phenyl)-5-(2-(1-phenylcyclohexyl)ethyl)-1,2,4-oxadiazole]
740 nM		1200 nM	Clc1ccc(-c2noc(CCC3(c4ccccc4)CCCCC3)n2)c(Cl)c1 [Example 17, 3-(2,4-dichlorophenyl)-5-(2-(1-phenylcyclohexyl)ethyl)-1,2,4-oxadiazole]
> 62000 nM	12000 nM		c1ccc(-c2noc(C3(c4ccccc4)CCCCC3)n2)cc1 [Example 42, 3-Phenyl-5-(1-phenylcyclohexyl)-1,2,4-oxadiazole, reference compound]
	610 nM		Clc1ccc(COc2ccc(-c3noc(CCC4(c5ccccc5)CCCCC4)n3)cc2)cc1 [Example 27, 3-(4-((4-chlorobenzyl)oxy)phenyl)-5-(2-(1-phenylcyclohexyl)ethyl)-1,2,4-oxadiazole]
130 nM	3.3 nM	630 nM	c1ccc(-c2noc(CCC3(c4ccccc4)CCCCC3)n2)cc1 [Example 7, 3-phenyl-5-(2-(1-phenylcyclohexyl)ethyl)-1,2,4-oxadiazole]
4900 nM	8.1 nM	16000 nM	COc1ccc(OC)c(-c2noc(CCC3(c4ccccc4)CCCCC3)n2)c1 [Example 26, 3-(2,5-dimethoxyphenyl)-5-(2-(1-phenylcyclohexyl)ethyl)-1,2,4-oxadiazole]
	97 nM		c1ccc(C2(CCc3nc(-c4ccccn4)no3)CCCCC2)cc1 [Example 30, 2-(5-(2-(1-phenylcyclohexyl)ethyl)-1,2,4-oxadiazol-3-yl)pyridine]
100 nM		2200 nM	c1ccc(C2(CCc3nc(-c4cccnc4)no3)CCCCC2)cc1 [Example 38, 3-(5-(2-(1-phenylcyclohexyl)ethyl)-1,2,4-oxadiazol-3-yl)pyridine]
	25 nM		Fc1ccc(-c2noc(CCC3(c4ccccc4)CCCCC3)n2)c(F)c1 [Example 28, 3-(2,4-difluorophenyl)-5-(2-(1-phenylcyclohexyl)ethyl)-1,2,4-oxadiazole]
36 nM		430 nM	Nc1cc(-c2noc(CCC3(c4ccccc4)CCCCC3)n2)ccn1 [Example 29, 4-(5-(2-(1-phenylcyclohexyl)ethyl)-1,2,4-oxadiazol-3-yl)-2-pyridinamine]
280 nM		> 62000 nM	FC(F)(F)c1cc(-c2noc(CCC3(c4ccccc4)CCCCC3)n2)cc(C(F)(F)F)c1 [Example 4, 3-(3,5-bis(trifluoromethyl)phenyl)-5-(2-(1-phenylcyclohexyl)ethyl)-1,2,4-oxadiazole]
	1.2 nM		Cc1ccsc1-c1noc(CCC2(c3ccccc3)CCCCC2)n1 [Example 40, 3-(3-methyl-2-thienyl)-5-(2-(1-phenylcyclohexyl)ethyl)-1,2,4-oxadiazole]
